# Experimental data taken from PMC8397297 (ACS Chemical Neuroscience, 2021).
# Legend:
# mGAT1 [1] = target: T1, mGAT1 (Mus musculus, UniProt P31648); experiment: [3H]GABA uptake assay in HEK-293 cells stably expressing mGAT1; format: cell-based; conditions: for remaining [3H]GABA uptake mGAT1: in the presence of 100 μM inhibitor; for IC50: [3H]GABA uptake, read-out: pIC50 ± SEM mGAT1 (converted)
# T1 construct: expressed in transfected cells; host or cells: HEK-293
# mGAT3 = target: T2, mGAT3 (Mus musculus, UniProt P31649); experiment: [3H]GABA uptake assay in HEK-293 cells stably expressing mGAT3; format: cell-based; conditions: for IC50: [3H]GABA uptake, read-out: pIC50 ± SEM mGAT3 (converted); for remaining [3H]GABA uptake mGAT3: in the presence of 100 μM inhibitor
# T2 construct: expressed in transfected cells; host or cells: HEK-293
# T2 sequence (P31649 1-602): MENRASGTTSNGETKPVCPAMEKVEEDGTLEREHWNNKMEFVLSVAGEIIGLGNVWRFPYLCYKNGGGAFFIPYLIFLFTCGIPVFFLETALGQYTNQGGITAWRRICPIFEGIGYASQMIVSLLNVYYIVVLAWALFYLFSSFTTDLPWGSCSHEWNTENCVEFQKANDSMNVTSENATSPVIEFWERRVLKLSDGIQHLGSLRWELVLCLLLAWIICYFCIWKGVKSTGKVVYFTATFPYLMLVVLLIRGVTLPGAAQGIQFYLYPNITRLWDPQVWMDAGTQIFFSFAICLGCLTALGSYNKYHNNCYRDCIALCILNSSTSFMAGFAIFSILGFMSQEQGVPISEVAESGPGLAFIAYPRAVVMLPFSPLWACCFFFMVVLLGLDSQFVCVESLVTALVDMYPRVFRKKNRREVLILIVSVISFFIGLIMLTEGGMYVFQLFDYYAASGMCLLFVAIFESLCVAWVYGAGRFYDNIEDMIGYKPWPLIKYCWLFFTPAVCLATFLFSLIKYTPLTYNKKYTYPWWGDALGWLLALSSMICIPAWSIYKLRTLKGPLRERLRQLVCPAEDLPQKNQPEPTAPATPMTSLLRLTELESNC
# mGAT4 = target: T3, mGAT4 (Mus musculus, UniProt P31650); experiment: [3H]GABA uptake assay in HEK-293 cells stably expressing mGAT4; format: cell-based; conditions: for IC50: [3H]GABA uptake, read-out: pIC50 ± SEM mGAT4 (converted); for remaining [3H]GABA uptake mGAT4: in the presence of 100 μM inhibitor
# T3 construct: expressed in transfected cells; host or cells: HEK-293
# T3 sequence (P31650 1-627): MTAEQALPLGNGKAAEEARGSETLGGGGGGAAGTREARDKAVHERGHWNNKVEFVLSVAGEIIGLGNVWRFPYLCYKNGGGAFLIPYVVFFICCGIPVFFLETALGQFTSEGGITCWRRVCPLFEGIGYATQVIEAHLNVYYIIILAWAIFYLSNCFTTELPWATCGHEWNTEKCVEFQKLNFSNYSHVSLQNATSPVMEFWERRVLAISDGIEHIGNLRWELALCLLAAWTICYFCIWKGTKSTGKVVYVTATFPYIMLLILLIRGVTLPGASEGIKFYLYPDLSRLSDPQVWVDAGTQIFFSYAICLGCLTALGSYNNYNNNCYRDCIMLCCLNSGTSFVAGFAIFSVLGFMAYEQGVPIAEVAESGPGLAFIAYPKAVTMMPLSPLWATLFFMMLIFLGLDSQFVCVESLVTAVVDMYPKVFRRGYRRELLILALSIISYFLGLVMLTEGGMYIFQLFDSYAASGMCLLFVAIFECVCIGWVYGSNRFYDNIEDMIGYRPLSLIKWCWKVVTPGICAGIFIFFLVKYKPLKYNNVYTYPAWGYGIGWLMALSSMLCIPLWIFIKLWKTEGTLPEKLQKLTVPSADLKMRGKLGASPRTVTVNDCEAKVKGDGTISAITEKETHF
# mGAT2 = target: T4, mGAT2 (Mus musculus, UniProt P31651); experiment: [3H]GABA uptake assay in HEK-293 cells stably expressing mGAT2; format: cell-based; conditions: for IC50: [3H]GABA uptake, read-out: pIC50 ± SEM mGAT2 (converted); for remaining [3H]GABA uptake mGAT2: in the presence of 100 μM inhibitor
# T4 construct: expressed in transfected cells; host or cells: HEK-293
# T4 sequence (P31651 1-614): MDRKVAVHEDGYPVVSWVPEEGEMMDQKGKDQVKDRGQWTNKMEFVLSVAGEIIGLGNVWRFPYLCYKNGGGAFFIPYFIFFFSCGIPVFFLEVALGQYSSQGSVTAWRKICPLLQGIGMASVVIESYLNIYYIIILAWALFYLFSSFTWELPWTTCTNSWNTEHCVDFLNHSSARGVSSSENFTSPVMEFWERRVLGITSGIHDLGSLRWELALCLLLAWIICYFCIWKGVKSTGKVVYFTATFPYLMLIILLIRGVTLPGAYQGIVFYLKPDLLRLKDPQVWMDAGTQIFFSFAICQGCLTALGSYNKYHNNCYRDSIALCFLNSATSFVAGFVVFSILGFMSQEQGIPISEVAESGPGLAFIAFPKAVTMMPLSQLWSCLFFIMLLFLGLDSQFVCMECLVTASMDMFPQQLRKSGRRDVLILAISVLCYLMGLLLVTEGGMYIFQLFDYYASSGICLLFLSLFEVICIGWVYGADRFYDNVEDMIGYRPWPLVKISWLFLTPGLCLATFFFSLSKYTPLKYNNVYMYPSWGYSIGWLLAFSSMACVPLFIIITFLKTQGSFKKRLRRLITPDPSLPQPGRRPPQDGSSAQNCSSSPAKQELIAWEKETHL
# mGAT1 [2] = target: T1, mGAT1; experiment: competitive MS binding assay with NO711 as unlabeled marker (LC-ESI-MS/MS); conditions: in the presence of 100 μM inhibitor
# Procedure: Specific binding affinity toward mGAT1 was determined via a competitive mass spectrometry (MS) binding assay quantified by liquid chromatography–electrospray ionization tandem mass spectrometry (LC–ESI-MS/MS) with NO711 as an unlabeled marker.[50]
# MS binding assays for mGAT1 were performed as described earlier.[50] Inhibition of mGAT1 binding by the synthesized compounds was determined in MS binding assays at a screening concentration of 100 μM and analyzed by LC–ESI-MS/MS.
Structure (SMILES),remaining [3H]GABA uptake mGAT1 (mGAT1 [1]),IC50 (mGAT3),IC50 (mGAT4),IC50 (mGAT2),remaining NO711 binding mGAT1 (mGAT1 [2]),remaining [3H]GABA uptake mGAT4 (mGAT4),remaining [3H]GABA uptake mGAT2 (mGAT2),IC50 (mGAT1 [1]),remaining [3H]GABA uptake mGAT3 (mGAT3)
"CN(CCC=C1c2ccccc2CCc2ccccc21)C(CO)C(=O)NCc1ccccc1Cl (stereo not drawn) [Compound 56b, N-(2-Chlorobenzyl)-2-((3-(10.11-dihydro-5H-dibenzo[a,d][7]annulen-5-ylidene)propyl)(methyl)amino)-3-hydroxypropanamide]",100 μM: 50%,10.5 µM,27.5 µM,25.7 µM,100 μM: 86%,,,,
"CC(O)CC(C(=O)NCc1ccccc1)N1CCC(=C2c3ccccc3-c3ccccc32)CC1 (stereo not drawn) [2RS,4RS-41a, N-Benzyl-2-[4-(9H-fluoren-9-ylidene)piperidin-1-yl]-4-hydroxypentanamide]",100 μM: 49%,64.6 µM,,74.1 µM,100 μM: 92%,52%,,,
"C[C@H](O)C[C@H](C(=O)NCc1ccc(Cl)cc1)N(C)CCC=C1c2ccccc2CCc2ccccc21 (relative stereo) [2RS,4SR-39b, N-(4-Chlorobenzyl)-2-((3-(10,11-dihydro-5H-dibenzo[a,d][7]annulen-5-ylidene)propyl)(methyl)amino)-4-hydroxypentanamide]",100 μM: 51%,10.2 µM,9.12 µM,,100 μM: 87%,,100 μM: 73%,,
"CC(O)CC(C(=O)NCc1ccc(F)cc1)N1CCC(=C2c3ccccc3CCc3ccccc32)CC1 (stereo not drawn) [2RS,4RS-43b, 2-(4-(10,11-Dihydro-5H-dibenzo[a,d][7]annulen-5-ylidene)piperidin-1-yl)-N-(4-fluorobenzyl)-4-hydroxypentanamide]",,38 µM,47.9 µM,,100 μM: 86%,,100 μM: 59%,70.8 µM,
"Cc1ccsc1C(=C1CCN([C@H](C[C@H](C)O)C(=O)NCc2ccccc2)CC1)c1sccc1C (relative stereo) [2RS,4SR-37a, N-Benzyl-2-{4-[bis(3-methylthiophen-2-yl)methylidene]piperidin-1-yl}-4-hydroxypentanamide]",,61.7 µM,27.5 µM,,100 μM: 78%,,100 μM: 60%,29.5 µM,
"Cc1ccsc1C(=C1CCN(C(CO)C(=O)NCc2ccc(F)cc2)CC1)c1sccc1C (stereo not drawn) [Compound 54c, 2-{4-[Bis(3-methylthiophen-2-yl)methylidene]piperidin-1-yl}-N-[(4-fluorophenyl)methyl]-3-hydroxypropanamide]",,16.2 µM,28.8 µM,13.8 µM,100 μM: 96%,,,17 µM,
"CN(CCC=C1c2ccccc2CCc2ccccc21)C(CO)C(=O)NCc1ccc(F)cc1 (stereo not drawn) [Compound 56d, N-(4-Fluorobenzyl)-2-((3-(10,11-dihydro-5H-dibenzo[a,d][7]annulen-5-ylidene)propyl)(methyl)amino)-3-hydroxypropanamide]",,12.9 µM,12.3 µM,21.4 µM,100 μM: 96%,,,17.8 µM,
"Cc1ccsc1C(=C1CCN(C(CO)C(=O)NCc2ccccc2Cl)CC1)c1sccc1C (stereo not drawn) [Compound 54b, 2-{4-[Bis(3-methylthiophen-2-yl)methylidene]piperidin-1-yl}-N-[(2-chlorophenyl)methyl]-3-hydroxypropanamide]",100 μM: 53%,63.1 µM,95.5 µM,43.7 µM,100 μM: 100%,,,,
"Cc1ccsc1C(=C1CCN(C(CC(C)O)C(=O)NCc2ccccc2Cl)CC1)c1sccc1C (stereo not drawn) [2RS,4SR-37b, 2-{4-[Bis(3-methylthiophen-2-yl)methylidene]piperidin-1-yl}-N-[(2-chlorophenyl)methyl]-4-hydroxypentanamide]",100 μM: 50%,72.4 µM,,,100 μM: 108%,100 μM: 56%,100 μM: 69%,,
"CCC(C(=O)NCc1ccccc1Cl)N1CCC(=C(c2sccc2C)c2sccc2C)CC1 (stereo not drawn) [Compound 64b, 2-(4-(Bis(3-methylthiophen-2-yl)methylene)piperidin-1-yl)-N-(2-chlorobenzyl)butanamide]",100 μM: 66%,,,,100 μM: 108%,100 μM: 64%,100 μM: 101%,,100 μM: 61%
"CN(CCON=C(c1ccccc1)c1ccccc1)C(CO)C(=O)NCc1ccccc1 (stereo not drawn) [Compound 59a, N-Benzyl-2-((2-(((diphenylmethylene)amino)oxy)ethyl)(methyl)amino)-3-hydroxypropanamide]",,58.9 µM,26.9 µM,22.9 µM,100 μM: 80%,,,22.9 µM,
CN(CCC=C1c2ccccc2C=Cc2ccccc21)C(CO)C(=O)NCc1ccc(F)cc1 (stereo not drawn) [Compound 55d],,10.5 µM,17 µM,20.4 µM,100 μM: 90%,,,26.3 µM,
"CCC(C(=O)NCc1ccccc1)N1CCC(=C(c2sccc2C)c2sccc2C)CC1 (stereo not drawn) [Compound 64a, N-Benzyl-2-(4-(bis(3-methylthiophen-2-yl)methylene)piperidin-1-yl)butanamide]",,,,,100 μM: 81%,100 μM: 77%,100 μM: 108%,7.08 µM,100 μM: 69%
"CC(O)CC(C(=O)NCc1ccc(F)cc1)N1CCC(=C2c3ccccc3CCc3ccccc32)CC1 (stereo not drawn) [2RS,4SR-43b, 2-(4-(10,11-Dihydro-5H-dibenzo[a,d][7]annulen-5-ylidene)piperidin-1-yl)-N-(4-fluorobenzyl)-4-hydroxypentanamide]",100 μM: 54%,,,,100 μM: 102%,100 μM: 62%,100 μM: 80%,,100 μM: 87%
"CC(O)CC(C(=O)NCc1ccccc1)N1CCC(=C2c3ccccc3-c3ccccc32)CC1 (stereo not drawn) [2RS,4SR-41a, N-Benzyl-2-[4-(9H-fluoren-9-ylidene)piperidin-1-yl]-4-hydroxypentanamide]",,55 µM,72.4 µM,89.1 µM,100 μM: 89%,,,85.1 µM,
